Results on 12 compounds are retold here after US5198441A, “Derivatives of 1,2-dihydro 2-oxo quinoxalines, their preparation and their use in therapy” (Pierre Fabre Medicament, priority 1989, dated 1993).

In brackets after ≈: the same amount, converted by molar mass.

Experiment [1] concerns trachea contractions caused by potassium chloride. Description: Antagonism of the effect of potassium chloride (contraction of isolated guinea pig trachea). The conditions noted are these: Cavia porcellus, 5 min; potassium chloride 1850 μg/ml; 5 minutes contact; 37° C. As for the experimental part: (§1) The compounds of the invention were subjected to pharmacological tests which have shown their interest as broncholytics. For this purpose, the compounds were studied for their effect against contractions caused by various products in accordance with the following protocol.
(§2) A piece of the trachea of a male tri-color guinea pig of an average weight of 400 g is cut in a spiral and mounted (about 2.5 cm) in an isolated organ cell maintained thermostatically at 37° C. and filled with oxygenated tyrode. The isometric contractions caused by the different mediators are recorded by means of a Gould Statham UC2 detector (Gould Inc. Oxnard, Calif., USA) or UF1 Palmer Bioscience detector connected to a potentiometric recorder (Linseiss, Selb, Federal Republic of Germany). At the start of the experiment, the piece of trachea was placed under a tension of 1 g and set aside for one hour.
(§3) The following mediator concentrations are used (concentrations generally causing maximum contraction): histamine dihydrochloride, 10 μg/ml; acetylcholine chloride, 1 μg/ml; potassium salt of leucotrine D4, 0.05 μg/ml; potassium chloride, 1850 μg/ml. The concentrations of agents used produce contractions which become maximum within 5 to 15 minutes, depending on the mediators, and then remain at that level. One concentration of the product studied is administered for each contraction,and the product is left in contact with the trachea for 5 minutes. The inhibition, if any, obtained at the end of this time is measured (percentage variation in the amplitude of the contraction). The trachea is then washed for 15 seconds and set aside for about 10 minutes (time necessary to return to the base tone) before causing a new contraction.
(§4) The water-insoluble products are diluted in 0.178% (v/v) (final concentration in the bath) of dimethyl sulfoxide (DMSO).
(§5) The 50% inhibitory concentrations (IC 50) are calculated using an SAS program (Statistical Analysis System) based on Bliss and Cattel (Bliss C.I. and Cattel McK. Biological Assay Ann. Rev. Physiol. 5, 479, 1943).

The test system of experiment [2] is trachea contractions caused by histamine. Description: Antagonism of the effect of histamine (contraction of isolated guinea pig trachea). The conditions noted are these: Cavia porcellus, 5 min; histamine dihydrochloride 10 μg/ml; 5 minutes contact; 37° C. As for the experimental part: as §1, §2, §3, §4, §5
The test system of experiment [3] is trachea contractions caused by acetylcholine. Put plainly: Antagonism of the effect of acetylcholine (contraction of isolated guinea pig trachea). The conditions noted are these: Cavia porcellus, 5 min; acetylcholine chloride 1 μg/ml; 5 minutes contact; 37° C. As for the experimental part: as §1, §2, §3, §4, §5
Experiment [4] relates to trachea contractions caused by leucotriene D4. Put plainly: Antagonism of the effect of leucotriene D4 (contraction of isolated guinea pig trachea). The conditions noted are these: Cavia porcellus, 5 min, leucotriene D4 potassium salt 0.05 μg/ml, 5 minutes contact; for inhibition at 10 µg/mL: 10 μg/ml, percentage variation in the amplitude of the contraction. How it is done:
as §1, §2, §3, §4, §5

`CC(C)=CCn1c(=O)c(CCCO)nc2ccccc21` [Compound 1, 1-prenyl 3-(3-hydroxypropyl) 1,2-dihydro 2-oxo quinoxaline]: the IC50 in experiment [1] amounted to 5.6 µg/mL (≈ 20.6 µM); in experiment [2] it was 0.9 µg/mL (≈ 3.3 µM); in experiment [3], 25.5 µg/mL (≈ 93.6 µM). Besides, the inhibition at 10 µg/mL in experiment [4] was -71%.

Turning to `CCCn1c(=O)c(CCCOC(=O)NC)nc2ccccc21` [Compound 3, 1-propyl 3-(3-methylcarbamoyloxypropyl) 1,2-dihydro 2-oxo quinoxaline], the IC50 in experiment [2] came to 3.3 µg/mL (≈ 10.9 µM); in experiment [3], 7.1 µg/mL (≈ 23.4 µM).

Take `C=CCn1c(=O)c(CCCO)nc2ccc(Cl)cc21` [Compound 5]: the IC50 in experiment [1] came to 17 µg/mL (≈ 61 µM).

The compound `C=CCn1c(=O)c(CCCO)nc2ccccc21` [Compound 8] registered an IC50 in experiment [1] of 12.3 µg/mL (≈ 50.3 µM).

Consider `CCCn1c(=O)c(CCCO)nc2ccccc21` [Compound 11], for which the IC50 in experiment [2] was 3.45 µg/mL (≈ 14 µM).

As to `CC=CCn1c(=O)c(CCCO)nc2ccccc21` [Compound 12], the IC50 in experiment [1] came out at 6.2 µg/mL (≈ 24 µM); in experiment [2], 0.54 µg/mL (≈ 2.09 µM); in experiment [3] it was 15.5 µg/mL (≈ 60 µM). Besides, the inhibition at 10 µg/mL in experiment [4] was -71%.

With `O=c1c(CCCO)nc2ccccc2n1CC1CC1` [Compound 15], the inhibition at 10 µg/mL in experiment [4] is -64%.

`O=c1c(CCCO)nc2ccccc2n1Cc1ccccc1` [Compound 17]: half-maximal inhibition in experiment [2] (IC50) was put at 0.43 µg/mL (≈ 1.46 µM).

With `CC=CCn1c(=O)c(CCC(C)O)nc2ccccc21` (stereo not drawn) [Compound 19], the figures for the IC50 in experiment [2] and in experiment [3] were 1.13 µg/mL (≈ 4.15 µM) and 16.5 µg/mL (≈ 60.6 µM), respectively.

Regarding `CC(C)=CCn1c(=O)c(CCC(C)O)nc2ccccc21` (stereo not drawn) [Compound 20], the IC50 in experiment [2] worked out at 1.55 µg/mL (≈ 5.41 µM); in experiment [3], 9.7 µg/mL (≈ 33.9 µM).

The compound `COc1ccc(Cn2c(=O)c(CCC(C)O)nc3ccccc32)cc1` (stereo not drawn) [Compound 24] returned an IC50 in experiment [2] of 1.3 µg/mL (≈ 3.84 µM).

As to `Cn1c(=O)c2[nH]cnc2n(C)c1=O` [theophylline, reference compound], the IC50 was found to be 21 µg/mL (≈ 117 µM) in experiment [1], 11.5 µg/mL (≈ 63.8 µM) in experiment [2], 65 µg/mL (≈ 361 µM) in experiment [3] and 13.5 µg/mL in experiment [4] (37° C.).
